Test results from the NIST ThermoML archive (doi:10.1021/je201080c).

Experiments:
[1] = refractive index (Na D-line) (dimensionless); settings: 101.33 kPa, Liquid, Standard Abbe refractometry
[2] = for viscosity / mass density: 101.33 kPa, Liquid; for viscosity: Surface Light Scattering; for mass density: Vibrating tube method; for surface tension liquid-gas: Pendant drop shape

CCn1cc[n+](C)c1.N#C[B-](C#N)(C#N)C#N [1-ethyl-3-methylimidazolium tetracyanoborate]
Settings | mass density, [2] [kg/m3] | refractive index, [1] | surface tension liquid-gas, [2] [mN/m] | viscosity, [2] [mPa·s]
283.15 K | 1048.33 | 1.4533 | – | 37.06
288.15 K | 1044.31 | – | – | 27.75
293.15 K | 1040.31 | 1.4499 | – | 21.79
297.04 K | – | – | 47.09 | –
298.15 K | 1036.34 | – | – | –
303.15 K | 1032.4 | 1.4465 | – | 14.65
308.15 K | 1028.48 | – | – | –
313.15 K | 1024.59 | 1.4432 | 43.29 | 10.09
318.15 K | 1020.72 | – | – | –
323.15 K | 1016.87 | – | 41.6 | 7.61
328.15 K | 1013.06 | – | – | –
333.15 K | 1009.26 | – | 39.53 | 5.77
338.15 K | 1005.49 | – | – | –
343.15 K | 1001.74 | – | 38.33 | 4.67
348.15 K | 998.01 | – | – | –
353.15 K | 994.28 | – | 36.52 | 3.7
358.15 K | 990.59 | – | – | –
363.15 K | 986.92 | – | 35.8 | 3.16
